Data published in ChEMBL document CHEMBL5725463, “Amino-dihydrothiazine and amino-dioxido dihydrothiazine compounds as beta-secretase antagonists and methods of use” (2017).

Key:
Beta-secretase 1 = Beta-secretase 1 (Homo sapiens, UniProt P56817); assay: In Vivo Inhibition of Beta-Secretase: Several animal models, including mouse, rat, dog, and monkey, may be used to screen for inhibition of beta-secretase activity in vivo following administration of a test compound sample. Animals used in this invention can be wild type, transgenic, or gene knockout animals. For example, the Tg2576 mouse model, prepared and conducted as described in Hsiao et al., 1996, Science 274, 99-102, and other non-transgenic or gene knockout animals are useful to analyze in vivo inhibition of Amyloid beta peptide (Abeta) production in the presence of inhibitory test compounds. Generally, 2 to 18 month old Tg2576 mice, gene knockout mice or non-transgenic animals are administered test compounds formulated in vehicles, such as cyclodextran, phosphate buffers, hydroxypropyl methylcellulose or other suitable vehicles. […]; type: organism-based
Sequence of Beta-secretase 1 (P56817 whole entry): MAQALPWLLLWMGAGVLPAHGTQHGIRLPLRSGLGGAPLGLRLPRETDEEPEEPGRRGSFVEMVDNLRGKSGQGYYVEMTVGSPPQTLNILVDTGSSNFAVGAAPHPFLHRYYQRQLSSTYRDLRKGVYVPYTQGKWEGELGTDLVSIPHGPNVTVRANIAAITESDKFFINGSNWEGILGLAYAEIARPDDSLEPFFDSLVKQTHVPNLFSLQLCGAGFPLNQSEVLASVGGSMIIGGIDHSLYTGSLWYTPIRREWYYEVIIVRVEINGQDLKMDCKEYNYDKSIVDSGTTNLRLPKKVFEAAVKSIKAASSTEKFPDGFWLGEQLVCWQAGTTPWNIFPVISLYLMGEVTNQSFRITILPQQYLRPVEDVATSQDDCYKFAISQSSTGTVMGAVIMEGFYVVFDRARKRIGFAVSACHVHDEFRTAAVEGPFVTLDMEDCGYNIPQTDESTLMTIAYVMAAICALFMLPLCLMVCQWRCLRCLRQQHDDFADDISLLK

Cathepsin D = Cathepsin D (Homo sapiens, UniProt P07339); assay: In Vitro Enzymatic: Recombinant Cat D was expressed in CHO cells. The assay buffer for CathepsinD is 0.05 M citrate pH 3.5, 10% DMSO final, 5 mM CHAPS. The Cat D enzyme (9 nM) is pre-incubated for one hour with inhibitors, typically in about 1 uL of DMSO according to a serial dilution, is added thereto. The assays are effectively started by the addition of different FRET substrates (20 nM for Cat D) and the combination is incubated for one hour. The FRET assay is terminated with by addition of Tris buffer, which raises the pH to neutrality, and the fluorescence is determined. The FRET substrate is a peptide with commercially available fluorophore and quencher, on opposite sides of the BACE cleavage site. The Cat D substrate peptide sequence is based on sequence #1 of Table 1 from Gulnik et al. FEBS Letters v413 p 379-384 1997. Proteolytic cleavage of the FRET substrate releases quenching of fluorescence (Cat D excitation 500 nm and emission 580 nm).Alternatively, a Cat D assay may also be run according to the procedure described in the article, Characterization of new fluorgenic substrates for the rapid and sensitive assay of cathepsin E and cathepsin D, J. Biochem., 125:1137, 1999.; type: cell-based
Sequence of Cathepsin D (P07339 65-162 limits assumed): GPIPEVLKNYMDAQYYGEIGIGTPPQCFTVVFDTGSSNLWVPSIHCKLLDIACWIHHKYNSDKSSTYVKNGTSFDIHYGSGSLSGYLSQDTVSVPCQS
Sequence of Cathepsin D (P07339 169-412 limits assumed): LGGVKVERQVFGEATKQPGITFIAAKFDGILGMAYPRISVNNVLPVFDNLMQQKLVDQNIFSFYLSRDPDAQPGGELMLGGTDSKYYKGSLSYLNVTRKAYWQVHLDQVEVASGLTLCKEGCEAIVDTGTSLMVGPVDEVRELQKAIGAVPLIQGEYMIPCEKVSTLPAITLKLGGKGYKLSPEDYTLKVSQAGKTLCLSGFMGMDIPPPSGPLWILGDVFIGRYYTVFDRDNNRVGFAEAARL

Cc1cc(Cl)cnc1C(=O)Nc1ccc(F)c([C@]2(C)CS(=O)(=O)C3(CCC3)C(N)=N2)c1
IC50 (Beta-secretase 1): 0.0016 µM | IC50 (Cathepsin D): 84.7 µM

Cc1cc(C#N)cnc1C(=O)Nc1ccc(F)c([C@]2(C)CS(=O)(=O)C3(CCC3)C(N)=N2)c1
IC50 (Beta-secretase 1): 0.00076 µM | IC50 (Cathepsin D): 134 µM
